The record followed here is PMC12775434, “Ultra-large virtual screening unveils potent agonists of the neuromodulatory orphan receptor GPR139” (Nature Communications, 2025).

Where “and” joins values, the source holds several entries; their conditions need not be identical. Identical values can stand only once.

For one assay, the target named is T1, GPR139 (Gi2 activation) (Homo sapiens, UniProt Q6DWJ6).
T1 construct: expressed in transfected cells; host or cells: HEK293A (transient, Lipofectamine 2000)
T1 sequence (Q6DWJ6 1-353): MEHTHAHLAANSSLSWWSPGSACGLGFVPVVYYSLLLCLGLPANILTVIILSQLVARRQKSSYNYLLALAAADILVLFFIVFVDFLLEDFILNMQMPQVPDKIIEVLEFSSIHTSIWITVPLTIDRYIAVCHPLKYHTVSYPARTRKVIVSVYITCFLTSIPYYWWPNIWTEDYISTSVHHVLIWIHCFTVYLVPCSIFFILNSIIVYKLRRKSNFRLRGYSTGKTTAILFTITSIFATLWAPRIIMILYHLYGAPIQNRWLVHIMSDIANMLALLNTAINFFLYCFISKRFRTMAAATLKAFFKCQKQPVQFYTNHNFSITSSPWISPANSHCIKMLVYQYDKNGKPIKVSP
Description: BRET G protein activation (dissociation) assay, Gi2, HEK293A. The class given is cell-based. The settings on record: for G protein activation, Gi2: individual replicates. Here is the method: (§1) Primary screening and pharmacological characterization of compounds were performed using a CHO-K1 cell line that stably expresses human GPR139 (GPR139-CHOk1). The GPR139-CHOk1 cell line was kindly provided by H. Lundbeck A/S, Denmark[24]. GPR139-CHOk1 cells were grown in Ham’s F-12 Kaighn’s Modification Medium (ThermoFisher #21127030) supplemented with 10% dialyzed fetal bovine serum (US origin, ThermoFisher #26400044), 100 units/mL Penicillin-Streptomycin (ThermoFisher #15140122), and 1 mg/mL Geneticin (ThermoFisher #11811031). […] M1R-CHOk1 cells were purchased from The Missouri S&T cDNA Resource Center (#CEM100TN00). M1R-CHOk1 cells were grown in Ham’s F12 Medium (ThermoFisher #21765029) supplemented with 10% fetal bovine serum (Brazilian origin, ThermoFisher #10270106), 100 units/mL Penicillin-Streptomycin, and 0.25 mg/mL Geneticin. HEK293A cells transiently transfected with GPR139 were used for additional pharmacological assessment of signaling pathways activated by GPR139. HEK239A cells were generously provided by Dr. Asuka Inoue, Tohoku University, Japan. HEK293A cells were grown in Dulbecco’s Modified Eagle Medium (ThermoFisher #31966047) supplemented with 10% dialyzed fetal bovine serum and 100 units/mL Penicillin-Streptomycin. Cell lines were maintained at 37 °C in humidified incubator equilibrated with 5% CO2.
(§2) The G protein dissociation assay developed by the lab of Kirill A. Martemyanov was used to measure the coupling of multiple G proteins by GPR139[57]. The assay was performed as described previously with minor modifications. HEK293A cells were reverse transfected 20–24 h prior to assay. 50,000 cells were plated in each well of white opaque tissue culture treated 96-well plates (PerkinElmer #6005680) previously coated with poly-D-lysine. Transfection solutions were prepared as described, and 10 µL transfection solution was mixed with 100 µL cells in each well. The cells in each well were transfected with 18.9 ng GPR139, 6.3 ng Venus 1-155 Gγ2, 6.3 ng Venus 159-239 Gβ1, 6.3 ng masGRK3ct-NanoLuc and 12.6 ng Gαi2, 12.6 ng Gαi3, 12.6 ng GαoA, 12.6 ng Gαq or 25.2 ng Gα12 using 375 nL Lipofectamine 2000 Transfection Reagent. Transfections with Gαq and Gα12 contained 6.3 ng DNA of the active subunit S1 of pertussis toxin (PTX-S1). Each transfection was normalized to 150 ng total DNA with pcDNA3.1. The BRET biosensors were a kind gift from the Martemyanov lab. On the day of the experiment the cells were washed with HEPES buffer. Test compounds were diluted in HEPES buffer from DMSO stocks (final DMSO concentration of maximally 0.3%). NanoLuc Luciferase substrate NanoGlo—furimazine (Promega #N1120) was diluted 1000-fold (final) in HEPES buffer. NanoGlo and test compounds were added, and measurements were performed after 10 s for Gi3, 15 s for Gi2 and GoA, 20 s for Gq, and 90 s for G12—the timepoint where maximal signal occurred with each G protein, ensuring proper determination of the potency for the G protein coupling. Simultaneous dual emission was measured at 535 nm and 475 nm on LUMIstar Omega Microplate Reader (BMG Labtech) at room temperature. The BRET ratio of 535 nm/475 nm (Venus/NanoLuc), reflecting the dissociation of the G protein heterotrimer, was used to determine the G protein activation. The basal BRET ratio obtained with buffer condition was subtracted from the absolute BRET ratio at a given test compound concentration, and the responses were normalized to the one obtained with 10 µM JNJ-63533054 for the activation of Gi2.
(§3) Pharmacological data and statistical analyses were performed in GraphPad Prism v9–10 (Graphpad Software Inc., San Diego, CA), which are also specifically described in the figure and table legends. […]

For the next assay, the target named is T2, GPR139 (Gq activation) (Homo sapiens, UniProt Q6DWJ6).
T2 construct: expressed in transfected cells; host or cells: HEK293A (transient, Lipofectamine 2000)
T2 sequence (Q6DWJ6 1-353): T1 sequence (Q6DWJ6 1-353)
Nature of the assay: BRET G protein activation (dissociation) assay, Gq, HEK293A. The class given is cell-based. The settings on record: for G protein activation, Gq: individual replicates. How it is done:
as §1, §2, §3

[1] abbreviates: HEK293-A, normalized to JNJ-63533054 (JNJ(S)).

Regarding `Cc1cscc1-c1nc(CC(=O)N[C@@H](C)c2ccccc2)no1` [1.1(S)], the maximal response (Emax) stood at 95 ± 5% at GPR139 (Gi2 activation) (setting [1]) and 35 ± 3% on GPR139 (Gq activation) (setting [1]). The EC50 is 50.1 nM at GPR139 (Gi2 activation) (Supplementary Table 6, read-out: pEC50 Gi2 (converted)) and 200 nM at GPR139 (Gq activation) (Supplementary Table 6). The “G protein activation, Gi2” value on GPR139 (Gi2 activation) (log [compound] M -4.5) was 94 % of JNJ-63533054 at Gi2 (2×) and 104 % of JNJ-63533054 at Gi2; at GPR139 (Gi2 activation) (log [compound] M -5.0), 90 % of JNJ-63533054 at Gi2 (2×) and 104 % of JNJ-63533054 at Gi2; on GPR139 (Gi2 activation) (log [compound] M -5.5) it was 86 % of JNJ-63533054 at Gi2 and 80 % of JNJ-63533054 at Gi2 and 99 % of JNJ-63533054 at Gi2; at GPR139 (Gi2 activation) (log [compound] M -6.0), 86 % of JNJ-63533054 at Gi2 and 80 % of JNJ-63533054 at Gi2 and 99 % of JNJ-63533054 at Gi2; on GPR139 (Gi2 activation) (log [compound] M -6.5), 82 % of JNJ-63533054 at Gi2 and 74 % of JNJ-63533054 at Gi2 and 89 % of JNJ-63533054 at Gi2; on GPR139 (Gi2 activation) (log [compound] M -7.0) it was 63 % of JNJ-63533054 at Gi2 and 57 % of JNJ-63533054 at Gi2 and 72 % of JNJ-63533054 at Gi2. Moreover, the “G protein activation, Gi2” value is 36 % of JNJ-63533054 at Gi2 and 35 % of JNJ-63533054 at Gi2 and 49 % of JNJ-63533054 at Gi2 at GPR139 (Gi2 activation) (log [compound] M -7.5); 14 % of JNJ-63533054 at Gi2 and 11 % of JNJ-63533054 at Gi2 and 32 % of JNJ-63533054 at Gi2 at GPR139 (Gi2 activation) (log [compound] M -8.0). For the same compound, the “G protein activation, Gq” value on GPR139 (Gq activation) (log [compound] M -4.5) is 35 % of JNJ-63533054 at Gi2 and 45 % of JNJ-63533054 at Gi2 and 30 % of JNJ-63533054 at Gi2; at GPR139 (Gq activation) (log [compound] M -5.0), 36 % of JNJ-63533054 at Gi2 and 38 % of JNJ-63533054 at Gi2 and 28 % of JNJ-63533054 at Gi2; at GPR139 (Gq activation) (log [compound] M -5.5), 32 % of JNJ-63533054 at Gi2 and 38 % of JNJ-63533054 at Gi2 and 27 % of JNJ-63533054 at Gi2; at GPR139 (Gq activation) (log [compound] M -6.0), 30 % of JNJ-63533054 at Gi2 and 34 % of JNJ-63533054 at Gi2 and 26 % of JNJ-63533054 at Gi2; on GPR139 (Gq activation) (log [compound] M -6.5) it was 21 % of JNJ-63533054 at Gi2 and 30 % of JNJ-63533054 at Gi2 and 16 % of JNJ-63533054 at Gi2; at GPR139 (Gq activation) (log [compound] M -7.0) it was 11 % of JNJ-63533054 at Gi2 and 15 % of JNJ-63533054 at Gi2 and 8 % of JNJ-63533054 at Gi2. In addition, the “G protein activation, Gq” value on GPR139 (Gq activation) (log [compound] M -7.5) is 2.21 % of JNJ-63533054 at Gi2 and 3.62 % of JNJ-63533054 at Gi2 and 4 % of JNJ-63533054 at Gi2; at GPR139 (Gq activation) (log [compound] M -8.0), -2.13 % of JNJ-63533054 at Gi2 and -0.806 % of JNJ-63533054 at Gi2 and 3.47 % of JNJ-63533054 at Gi2.
